Results taken from US20110275643A1, “AROYLQUINOLINE COMPOUNDS” (NATIONAL HEALTH RESEARCH INSTITUTES, priority 2010, published 2011).
Where two headings read alike, the source gives them in different places.

Key:
[1] = tested on: KB-VIN10 cells (overexpression of P-gp170/MDR); assay: In vitro cell growth inhibition, methylene blue dye assay, MDR-positive KB-VIN10 cells; format: cell-based, Human; details: read-out: IC50 on the proliferation of cells, KB-VIN10
Method: (§1) Human oral epidermoid carcinoma KB cells, non-small-cell lung carcinoma H460 cells, colorectal carcinoma HT29 cells and stomach carcinoma MKN45 cells were maintained in RMPI-1640 medium supplied with 5% fetal bovine serum (FBS). […] Cells in logarithmic phase were cultured at a density of 5000 cells/mL/well in a 24-well plate. KB-VIN10 cells were cultured in drug-free medium for 3 days prior to use. The cells were exposed to various concentrations of the test drugs for 72 hours. The methylene blue dye assay was used to evaluate the effect of the test compounds on cell growth (Finlay et al., 1984).

[2] = tested on: oral epidermoid carcinoma KB cells; assay: In vitro cell growth inhibition, methylene blue dye assay, KB cells; format: cell-based, Human
Method: as §1

[3] = tested on: non-small-cell lung carcinoma H460 cells; assay: In vitro cell growth inhibition, methylene blue dye assay, H460 cells; format: cell-based, Human; details: read-out: IC50 on the proliferation of cells, H460
Method: as §1

[4] = tested on: colchicine-binding site of tubulin; assay: Tubulin competition-binding scintillation proximity assay ([3H]colchicine); details: for Inhibition of [3H]colchicine binding (% ± SD), 1 μM inhibitor / Inhibition of [3H]colchicine binding (% ± SD), 5 μM inhibitor: Tubulin at 1 μM, [3H]colchicine at 5 μM
Method: This assay was performed as described by Tahir et al., 2003. […] Then 80 μg of Streptavidin-labeled SPA (scintillation proximity assay) beads were added to each reaction mixture. Then the radioactive counts were directly measured by a scintillation counter.

[5] = tested on: colorectal carcinoma HT29 cells; assay: In vitro cell growth inhibition, methylene blue dye assay, HT29 cells; format: cell-based, Human; details: read-out: IC50 on the proliferation of cells, HT29
Method: as §1

[6] = tested on: stomach carcinoma MKN45 cells; assay: In vitro cell growth inhibition, methylene blue dye assay, MKN45 cells; format: cell-based, Human; details: read-out: IC50 on the proliferation of cells, MKN45
Method: as §1

[7] = tested on: MAP-rich tubulin; assay: Tubulin polymerization in vitro assay (turbidimetric); format: biochemical, bovine; details: 37° C., 30 minutes, read-out: Inhibition of tubulin polymerization IC50 ± SD
Method: Turbidimetric assays (Liou et al., 2004; Kuo et al., 2004) of microtubules were performed as described by Bollag et al. 1995. In brief, microtubule-associated protein (MAP)-rich tubulin (from bovine brain, Cytoskeleton, Denver, Col.) has been dissolved in reaction buffer (100 mM PIPES (1,4-piperazinediethanesulfulfonic acid, pH 6.9), 2 mM magnesium chloride (MgCl2), 1 mM GTP (guanosine triphosphate)) in preparing of 4 mg/mL tubulin solution. Tubulin solution (240 μg MAP-rich tubulin per well) was placed in 96-well microtiter plate in the presence of test compounds or 2% (v/v) DMSO (dimethyl sulfoxide) as vehicle control. The increase in absorbance was measured at 350 nm in a PowerWave X Microplate Reader (Bio-Tek Instruments, Winooski, Vt.) at 37° C. and recorded every 30 seconds for 30 minutes.

[8] = tested on: five cancer cell lines (KB, H460, HT29, MKN45, KB-VIN10); assay: Antiproliferative activity, mean over five cancer cell lines; format: cell-based, Human; details: for IC50: Homo sapiens, read-out: mean IC50 value against five cancer cell lines
Method: The synthesized compounds 5 to 17 were evaluated for antiproliferative activities against four carcinoma cells, oral epidermoid carcinoma KB cells, non-small-cell lung carcinoma H460 cells, colorectal carcinoma HT29 cells and stomach carcinoma MKN45 cells, as well as the MDR-positive cell lines KB-VIN10, that overexpressed P-gp 170/MDR (Table 1). The controls were compounds 1 and 3.
as §1

[9] = Homo sapiens, KB-VIN10 cells, 72 hours, mean ± SD
[10] = Homo sapiens, KB cells, 72 hours, mean ± SD, read-out: IC50 on the proliferation of cells, KB
[11] = Homo sapiens, NCI-H460, H460 cells, 72 hours, mean ± SD
[12] = mean of KB, H460, HT29, MKN45, KB-VIN10
[13] = Homo sapiens, HT-29, HT29 cells, 72 hours, mean ± SD
[14] = Homo sapiens, MKN-45, MKN45 cells, 72 hours, mean ± SD
[15] = Homo sapiens, KB, 72 h, read-out: IC50 on the proliferation of cells, KB

SMILES	Inhibition of [3H]colchicine binding (% ± SD), 1 μM inhibitor [4] [%]	Inhibition of [3H]colchicine binding (% ± SD), 5 μM inhibitor [4] [%]	IC50 [7] [nM]	IC50 [1, 9] [nM]	IC50 [2, 10] [nM]	IC50 [3, 11] [nM]	melting point [°C]	IC50 [8, 12] [nM]	IC50 [5, 13] [nM]	IC50 [6, 14] [nM]	IC50 ([1]; Homo sapiens, KB-VIN10, 72 h) [nM]	IC50 [2, 15] [nM]	IC50 ([3]; Homo sapiens, NCI-H460, 72 h) [nM]	IC50 [8] [nM]	IC50 ([5]; Homo sapiens, HT-29, 72 h) [nM]	IC50 ([6]; Homo sapiens, MKN-45, 72 h) [nM]	other results
COc1ccc(/C=C\c2cc(OC)c(OC)c(OC)c2)cc1O [Compound 1, combretastatin A-4, reference compound]	87 ± 1	95 ± 2	[…]														IC50 ([1]; KB-VIN10 cells, 72 hours, mean ± SD): 1.9 ± 0.4 nM; IC50 ([2]; KB cells, 72 hours, mean ± SD, read-out: IC50 on the proliferation of cells, KB): 2.4 ± 0.2 nM; IC50 ([3]; H460 cells, 72 hours, mean ± SD): 2.6 ± 0.3 nM; IC50 ([5]; HT29 cells, 72 hours, mean ± SD): 835 ± 54 nM; IC50 ([6]; MKN45 cells, 72 hours, mean ± SD): 4.9 ± 0.2 nM
COc1cc(C(=O)c2ccc3ccccc3n2)cc(OC)c1OC [Compound 5, 2-(3′,4′,5′-trimethoxybenzoyl)quinoline]			> 10000	117 ± 23.7	174 ± 33.1	180 ± 25.5	158 to 159	173	148 ± 17	246 ± 32.7							
COc1cc(C(=O)c2ccc3ncccc3c2)cc(OC)c1OC [Compound 9, 6-(3′,4′,5′-trimethoxybenzoyl)quinoline]	51 ± 3	72 ± 3	2900	21.5 ± 7.7	24 ± 6.1	36 ± 5.5	132 to 134	24.4	24.6 ± 3	16.3 ± 4.5							
COc1ccc2nc(C(=O)c3cc(OC)c(OC)c(OC)c3)ccc2c1 [Compound 12, 6-methoxy-2-(3′,4′,5′-trimethoxybenzoyl)quinoline]	40 ± 3	68 ± 2	3500				143 to 145				21.5 ± 0.6	27.2 ± 9.8	61.5 ± 20.5	67	77 ± 5.7	150 ± 31.2	
COc1ccc2cc(C(=O)c3cc(OC)c(OC)c(OC)c3)ccc2n1 [Compound 14, 2-methoxy-6-(3′,4′,5′-trimethoxybenzoyl)quinoline]			> 10000	202 ± 26.2	301 ± 64.4	256 ± 34.6	182 to 183	220	206 ± 4.9	138 ± 54.4							
COc1cc(C(=O)c2ccc3c(N)c(OC)ccc3n2)cc(OC)c1OC [Compound 15, 5-amino-6-methoxy-2-(3′,4′,5′-trimethoxybenzoyl)quinoline]	90 ± 0.5	97 ± 1	1600				184.3 to 185.2				0.2 ± 0.1	0.3 ± 0.1	0.4 ± 0.3	0.32	0.4 ± 0.2	0.3 ± 0.2	IC50 ([2]; Homo sapiens, KB, read-out: 50% Inhibition concentration (IC50) on the proliferation of KB cells line): 0.31 nM; binding to the colchicine-binding domain in words ([4]; [3H]-colchicine binding assay): strongly bound to the colchicine-binding domain; fold improvement in the IC50 value over compound 12 ([8]; versus compound 12): > 100 fold
